Test results reported in patent US20100197610A1, “FRUCTOSE 1, 6 BISPHOSPHATE - A NOVEL ANTICONVULSANT DRUG” (Baylor College of Medicine, priority 2007, published 2010).

Tests used:
[1] = Preliminary studies of efficacy, trisodium vs dicalcium salt of FDP; format: in vivo
brain slices = experiment: Uptake of FDP in brain slices in vitro; format: in vitro ADME, Sprague-Dawley rats; details: incubation 1 hour in 500 μg ml-1 FDP, then washed
Experimental: Actual levels of FDP were determined by monitoring absorbance of reduced nicotinamide adenine dinucleotide (NADH) and treating the sample with aldolase (EC 4.1.2.13, 45 units mg-1 diluted 1:27 with distilled water), the enzyme which cleaves FDP into dihydroxyacetone phosphate (DAP) and D-glyceraldehyde 3-phosphate (GAP). DAP and GAP are interconverted by the enzyme triosephosphate isomerase (TIM, EC 5.3.3.1, 5290 units mg-1 diluted 1:120 with distilled water). Glycerol-3-phosphate dehydrogenase (GDH, EC 1.1.1.8, 252 units mg-1 diluted 1:100 with distilled water) catalyzes the reduction of DAP by NADH. […] After 5 min the absorbance was read 3 times at 340 nm, each reading 3 min apart. The average of these readings is the initial absorbance (Ai). This step removes any DAP or GAP in the sample and determines the baseline absorbance. […] Nine minutes after addition of the aldolase, the final absorbance (Af) was determined by 3 readings at 340 nm, each 6 minutes apart. The concentration of FDP in the sample was proportional to the difference in the initial and final absorbance. […] Levels of FDP in blood were determined per ml, while levels in tissue samples were determined as a function of tissue weight.
Additional experiments determined the uptake of FDP in brain slices in vitro. […]

Structure (SMILES): O=C(COP(=O)(O)O)[C@@H](O)[C@H](O)[C@H](O)COP(=O)(O)O [F1,6BP, Fructose-1,6-bisphosphate]
- efficacy of trisodium salt vs dicalcium salt [1]: no difference in efficacy
- tissue levels of FDP in brain slices (brain slices): 0.22 ± 0.013 mg/g
